Several values for one entry are separate records, joined by “and”; a condition that tells them apart may be missing. Identical values can stand only once. Like-named read-outs stand apart in the source and are kept apart here. Where a SMILES comes first, the peptide text is derived from it. Bridges are numbered along the chain shown (N, C = ends). [ ]: non-standard residue; d: D form. The star is where a group is joined. X1 = NC[C@@H](CC(=O)*)c1cccc(Cl)c1; X2 = CC[C@H](C)CCCCC(=O)*; Dab = NCC[C@H](N)C(=O)O; Dap = NC[C@H](N)C(=O)O
Experiments:
[1] = tested on: K. pneumoniae; format: cell-based, Klebsiella pneumoniae
Experimental: (§1) We employed image analysis to quantify bacterial survival under fixed antibiotic concentrations (10xMIC for 4 hours) on E. coli, A. baumannii, K. pneumoniae, and P. aeruginosa. […] Survival rate was quantified by calculating the ratio of the viable cells after antibiotic treatment and the total initial viable cell count.
(§2) Fig. 9 Killing kinetics of the studied antibiotics. a Bacterial survival rate in response to toxic antibiotic exposure. […] The bars indicate the survival rate (log10) compared to the untreated initial viable cell count (see “Methods”). Data are presented as mean values of 5 biological replicates ± SEM. The antibiotic group differentiation is denoted by color. […] Survival was estimated by measuring cell viability (colony-forming units/ml) of 2 biologically independent strains following a 4-hour exposure to different concentrations of 16 antibiotics on E. coli ATCC25922 (for further details, see “Methods”). The antibiotic concentration that kills 99.9% of the E. coli population is indicated as a vertical dotted line (see Supplementary Data 5). Error bars represent standard error calculated from the colony counts by Poisson’s model. A Hill function was fitted to the dose-response data from two biological replicates, producing sigmoidal curves (Supplementary Data 5). The Hill coefficient reflects how steeply the survival rate decreases in response to increasing antibiotic concentration ([…]). […] X-axis label colors indicate mode of action groups. For detailed information on antibiotic and bacterial species, see Supplementary Data 1. Source data are provided as a Source Data file.
(§3) In this current study, the killing kinetics of each antibiotic was measured according to a previously established experimental protocol[62] with minor modifications. During this assay, the bacterial cultures were exposed to antibiotics in 96-well assay plates and their viability after 4 hours of exposure was quantified by two methods: i) microplating and colony counting or ii) fluorescent staining of cells and counting of the fluorescent units.
(§4) Specifically, these experiments were performed in the following steps: (1) Preparation of bacterial stocks. Single colonies from each strain were isolated and grown overnight in MHB medium at 37 °C, 160 rpm. In case of the fluorescently tagged E. coli strains, the medium was supplemented with 10 μg/mL chloramphenicol, to maintain the pZS2R plasmid. Overnight cultures were diluted 1:5000 and grown to an optical density at 600 nm (OD600) of 0.25. These cultures were concentrated by centrifugation and small aliquots of 50 μL containing ~2.2 × 10^9 cells were frozen in glycerol (stored at −80 °C). (2) Preparing assay plates with antibiotics. 96-well plates were filled with 235 μL MHB and supplemented with antibiotics using an automated digital dispenser (D300e, Tecan). In the case of SCH79797, we used minimal media. […] For testing the clearance efficacy of each antibiotic at a single lethal dose, the 10x of the MIC for each antibiotic-strain pair were prepared in at least three replicates. (3) Antibiotic exposure. During the dose response assay, frozen cultures of the E. coli strains expressing YFP and mCherry were thawed and mixed at a 1:1 ratio, diluted 1:1000 in 30 mL MHB and incubated for 45 min at 37 °C and 160 rpm. During the single-dose assay, the frozen cultures of experimental strains (E. coli, K. pneumoniae, A. baumannii) were also thawed and diluted 1:1000 in 30 mL MHB and incubated at 37 °C to reach an OD of 0.25 and 160 rpm. Following this incubation phase, these bacterial cultures were then aliquoted into the 96-well deep-well antibiotic plates (15 μL culture; total volume of 250 μL) at an inoculum density of about 10^7 CFU.

[2] = tested on: P. aeruginosa; format: cell-based, Pseudomonas aeruginosa
Experimental: as §1, §2, §3, §4

[3] = tested on: polymyxin B-resistant lines of E. coli (EC-SEN); experiment: Cross-resistance of polymyxin B resistant evolved lines, relative MIC; format: cell-based, Escherichia coli
Experimental: 3 independently evolved lines from each investigated species were studied, including E. coli (EC), K. pneumoniae (KP), A. baumannii (AB), and P. aeruginosa (PA). […] The distances between antibiotics were computed using the Euclidean distance method based on the log-transformed MIC values. The clustering was performed using the complete linkage method. […] For detailed information on antibiotic and bacterial strain abbreviations, see Supplementary Data 1. Source data are provided as a Source Data file.
A robotic liquid handling system was used to automatically prepare a 11 to 16-step serial dilution in 384-well microtiter plates (Greiner). A final concentration of 5 × 10^5 bacterial cells per mL were inoculated into each well containing 60 µL MHB medium. Bacterial cultures were incubated at 37 °C with continuous shaking (Infors shaker, 900 rpm with 3 mm throw) for 18 hours (2 replicates from each). Cell growth was monitored by measuring the optical density (OD600 values, using Biotek Synergy microplate reader). MIC was defined as the antibiotic concentration of complete growth inhibition (i.e., OD600 < 0.05). Relative MIC was calculated as follows:1 relativeMIC=MICevolved/MICancestor […]
Each data point represents a distinct
Boxplots show the median, first and third quartiles, with whiskers showing the 5th and 95th percentiles. P values were calculated using Dunn's post-hoc test with Benjamini-Hochberg correction (NS indicates p > 0.05, ** / **** indicates p < 0.01 […]
For detailed information on antibiotic and bacterial strain abbreviations, see Supplementary Table 1. Source data are provided as a Source […]
(1 picture or pasted object on this page, not shown here)

[4] = tested on: mutated genes in antibiotic-adapted lines; experiment: Whole genome sequencing and comparative mutational analysis of adapted lines; details: lines adapted in laboratory evolution
Excerpt: We focused on the resistance mechanisms of DT permeabilizers and ST permeabilizers (Fig. 5a), as these antibiotics commonly disintegrate the bacterial membrane, and therefore the resistance mechanisms may overlap.
Genes are categorized based on their cellular localization using PSORT (Protein Subcellular Localization Prediction Tool). They are further classified according to their involvement in specific metabolic or resistance pathways using the KEGG (Kyoto Encyclopedia of Genes and Genomes) and COG (Clusters of Orthologous Genes) databases.
To identify potential antibiotic resistance mutations, we selected 2 to 5 lines from the frequency-of-resistance (FoR) and adaptive laboratory evolution (ALE) experiments for whole genome sequencing. Resistant populations were grown overnight in antibiotic-free medium, and DNA was isolated using the GenElute Bacterial Genomic DNA Kit (Sigma), following the manufacturer’s instructions. DNA was eluted in 120 µl of RNAse-free water over two elution steps, and 60 µl of the eluted DNA was further concentrated using the Zymo DNA Clean and Concentrator Kit. DNA concentration was measured with a Qubit Fluorometer and set to 1 ng/µl per sample. Sequencing libraries were prepared using the Nextera XT DNA library preparation kit (Illumina) and sequenced on an Illumina NextSeq 500 platform, generating 2 × 150 bp paired-end reads.
To identify and annotate variants, sequencing reads were mapped to their corresponding reference genomes using the Burrows-Wheeler Aligner (BWA)[75]. PCR duplicates were removed using Picard Mark Duplicates (see http://broadinstitute.github.io/picard) and reads with more than 6 mismatches were discarded. Variants (SNPs and INDELs) were called with Freebayes[76] and filtered using vcffilter[77], retaining only those with a quality score above 100. Rare variants were not excluded, but potential artefacts were manually inspected using IGV[78]. Variants were annotated with SnpEf, keeping only those absent in the ancestor. Mutations appearing in more than nine lines were excluded, as these were likely present in the ancestor. […]

[5] = EC-SEN, polymyxin B-resistant evolved line 4, MIC evolved/MIC ancestor
[6] = EC-SEN, polymyxin B-resistant evolved line 6, MIC evolved/MIC ancestor
[7] = EC-SEN, polymyxin B-resistant evolved line 10, MIC evolved/MIC ancestor
[8] = polymyxin B-resistant evolved line 4 of EC-SEN, MIC relative to ancestor
[9] = polymyxin B-resistant evolved line 6 of EC-SEN, MIC relative to ancestor
[10] = polymyxin B-resistant evolved line 10 of EC-SEN, MIC relative to ancestor
[11] = Klebsiella pneumoniae, survival at 10xMIC for 4 hours, single replicates, (fig 9a source data)

| Molecule | Relative MIC [3, 5] | Relative MIC [3, 6] | Relative MIC [3, 7] | Relative MIC [3, 8] | Relative MIC [3, 9] | Relative MIC [3, 10] | other results |
| --- | --- | --- | --- | --- | --- | --- | --- |
| CN[C@@H]1[C@@H](O[C@H]2O[C@H](CO)[C@@H](N)[C@H](O)[C@H]2O)OC2C[C@@H](N)[C@@H](O[C@H]3[C@H](O)[C@@H](O)[C@H](N)C[C@@H]3N)OC2[C@@H]1O (some centres unmarked) [Apramycin] |  |  |  |  |  |  | Survival rate (log10) ([1]; Klebsiella pneumoniae, survival at 10xMIC for 4 hours, single replicates, (fig 9a source data), listed as APR): -1.19 log10 and -1.1 log10 and -1.062 log10 and -0.9595 log10 and -0.945 log10 |
| Nc1nc(-n2cc(C(=O)O)c(=O)c3cc(F)c(N4CC(O)C4)c(Cl)c32)c(F)cc1F [Delafloxacin] |  |  |  |  |  |  | Survival rate (log10) ([1]; Klebsiella pneumoniae, survival at 10xMIC for 4 hours, single replicates, (fig 9a source data), listed as DEL): -0.7389 log10 and -0.7966 log10 and -0.7399 log10 and -1.048 log10 and -0.8397 log10; Survival rate (log10) ([2]; Pseudomonas aeruginosa, survival at 10xMIC for 4 hours, single replicates, (fig 9a source data), listed as DEL): -0.244 log10 and -0.1736 log10 and -0.08683 log10 and -0.3488 log10 and -0.1122 log10 |
| CN(C)[C@@H]1C(O)=C(C(N)=O)C(=O)[C@@]2(O)C(O)=C3C(=O)c4c(O)c(NC(=O)CN5CCCC5)cc(F)c4C[C@H]3C[C@@H]12 [Eravacycline] |  |  |  |  |  |  | Survival rate (log10) ([1]; Klebsiella pneumoniae, survival at 10xMIC for 4 hours, single replicates, (fig 9a source data), listed as ERA): -0.6401 log10 and -0.9022 log10 and -0.9087 log10 and -0.8384 log10 and -0.7454 log10; Survival rate (log10) ([2]; Pseudomonas aeruginosa, survival at 10xMIC for 4 hours, single replicates, (fig 9a source data), listed as ERA): -0.509 log10 and -0.5518 log10 and -0.8039 log10 and -0.6612 log10 and -0.7582 log10 |
| CNC(C)C1CCC(N)C(OC2C(N)CC(N)C(OC3OCC(C)(O)C(NC)C3O)C2O)O1 (centres unmarked) [Gentamicin] |  |  |  |  |  |  | Survival rate (log10) ([1]; Klebsiella pneumoniae, survival at 10xMIC for 4 hours, single replicates, (fig 9a source data), listed as GEN): -0.9685 log10 and -0.989 log10 and -1.08 log10 and -0.8281 log10 and -1.091 log10; Survival rate (log10) ([2]; Pseudomonas aeruginosa, survival at 10xMIC for 4 hours, single replicates, (fig 9a source data), listed as GEN): -0.02375 log10 and -0.1205 log10 and -0.1516 log10 and -0.09697 log10 and -0.6642 log10 |
| CC[C@H](C)CCCCC(=O)N[C@@H](CCN)C(=O)N[C@H](C(=O)N[C@@H](CCN)C(=O)N[C@H]1CCNC(=O)[C@H]([C@@H](C)O)NC(=O)[C@H](CCN)NC(=O)[C@H](CCN)NC(=O)[C@H](CC(C)C)NC(=O)[C@@H](Cc2ccccc2)NC(=O)[C@H](CCN)NC1=O)[C@@H](C)O [Polymyxin B] (X2-[Dab]T[Dab][Dab][Dab][dF]L[Dab][Dab]T; lactam 4-C (inferred); N-terminus assumed) | 64 | 32 | 32 | 64 | 32 | 32 | Survival rate (log10) ([1]; Klebsiella pneumoniae, survival at 10xMIC for 4 hours, single replicates, (fig 9a source data), listed as PMB): -3.309 log10 and -3.392 log10 and -3.139 log10 and -2.914 log10 and -3.825 log10; Survival rate (log10) ([2]; Pseudomonas aeruginosa, survival at 10xMIC for 4 hours, single replicates, (fig 9a source data), listed as PMB): -6 log10 and -3.379 log10 |
| CC(C)c1ccc(Cn2ccc3c4c(N)nc(NC5CC5)nc4ccc32)cc1 [SCH79797] | 1 | 1 | 1 | 1 | 1 | 1 | overlap in the set of mutated genes associated with ST permeabilizers [4]: 0.6%; bacterial survival after toxic antibiotic exposure ([1]; 10xMIC for 4 hours): eliminated the entire bacterial population; Survival rate (log10) [1, 11]: -6 log10 |
| CC(C)C[C@@H]1NC(=O)[C@@H](Cc2ccccc2)NC(=O)[C@H](CCN)NC(=O)[C@@H](NC(=O)[C@H](CN)NC(=O)[C@@H](NC(=O)C[C@H](CN)c2cccc(Cl)c2)[C@@H](C)O)CCNC(=O)[C@H]([C@@H](C)O)NC(=O)[C@H](CCN)NC(=O)[C@H](CCN)NC1=O [SPR206] (X1-T[Dap][Dab][Dab][dF]L[Dab][Dab]T; lactam 3-C (inferred); N-terminus assumed) | 32 | 64 | 64 | 32 | 64 | 64 | Survival rate (log10) ([1]; Klebsiella pneumoniae, survival at 10xMIC for 4 hours, single replicates, (fig 9a source data), listed as SPR): -4.671 log10 and -4.37 log10 and -3.671 log10; Survival rate (log10) ([2]; Pseudomonas aeruginosa, survival at 10xMIC for 4 hours, single replicates, (fig 9a source data), listed as SPR): -6 log10 and -2.301 log10 and -2.534 log10 and -2.682 log10 |
| C[C@@H](O)[C@H]1C(=O)N2C(C(=O)O)=C(S[C@H]3CC[S@@+]([O-])C3)S[C@H]12 [Sulopenem] |  |  |  |  |  |  | Survival rate (log10) ([1]; Klebsiella pneumoniae, survival at 10xMIC for 4 hours, single replicates, (fig 9a source data), listed as SUO): -0.7658 log10 and -1.06 log10 and -0.9043 log10 and -0.6919 log10 and -1.504 log10 |
| POL7306 | 1 | 2 | 2 | 1 | 2 | 2 | overlap in the set of mutated genes associated with ST permeabilizers [4]: 8.12%; Survival rate (log10) [1]: -3.973 log10 and -4.193 log10; Survival rate (log10) [1, 11]: -4.671 log10; Survival rate (log10) [2]: -6 log10; Survival rate (log10) ([2]; Pseudomonas aeruginosa, survival at 10xMIC for 4 hours, single replicates, (fig 9a source data), listed as POL): -2.602 log10 and -2.902 log10 and -2.057 log10 |
| Tridecaptin M152-P3 |  |  |  |  |  |  | overlap in the set of mutated genes associated with ST permeabilizers [4]: 2.5%; Survival rate (log10) ([1]; Klebsiella pneumoniae, survival at 10xMIC for 4 hours, single replicates, (fig 9a source data), listed as TRD): -2.838 log10 and -3.629 log10 and -3.392 log10 and -4.671 log10 |
| colistin |  | 32 | 32 |  | 32 | 32 | Survival rate (log10) ([1]; Klebsiella pneumoniae, survival at 10xMIC for 4 hours, single replicates, (fig 9a source data), listed as COL): -3.893 log10 and -3.973 log10 and -4.193 log10 and -4.37 log10; bacterial survival after toxic antibiotic exposure ([2]; 10xMIC for 4 hours): eliminate the full bacterial population; Survival rate (log10) ([2]; Pseudomonas aeruginosa, survival at 10xMIC for 4 hours, single replicates, (fig 9a source data)): -6 log10 |

Source: PMC11845477, “Exploring the principles behind antibiotics with limited resistance” (Nature Communications, 2025)
